In US8003649B2 (AstraZeneca AB, priority 2007, dated 2011):

biological target: T1, Androgen Receptor (AR) (Homo sapiens, UniProt P10275, T878A); test: LNCaP Androgen Receptor Down-regulation Cell Assay (immunofluorescence end point); assay type: cell-based; settings: LNCaP prostate carcinoma cells, compound incubation 20-22 hours, 50% reduction of the AR signal; read-out: Androgen Receptor Down-regulation Assay (a) IC50/μM
T1 construct: cell based immuno-fluorescence assay using the LNCaP prostate epithelial cell line; endogenous in cells; host or cells: LNCaP clone FGC (ATCC CRL-1740)
T1 sequence (P10275 1-920 T878A): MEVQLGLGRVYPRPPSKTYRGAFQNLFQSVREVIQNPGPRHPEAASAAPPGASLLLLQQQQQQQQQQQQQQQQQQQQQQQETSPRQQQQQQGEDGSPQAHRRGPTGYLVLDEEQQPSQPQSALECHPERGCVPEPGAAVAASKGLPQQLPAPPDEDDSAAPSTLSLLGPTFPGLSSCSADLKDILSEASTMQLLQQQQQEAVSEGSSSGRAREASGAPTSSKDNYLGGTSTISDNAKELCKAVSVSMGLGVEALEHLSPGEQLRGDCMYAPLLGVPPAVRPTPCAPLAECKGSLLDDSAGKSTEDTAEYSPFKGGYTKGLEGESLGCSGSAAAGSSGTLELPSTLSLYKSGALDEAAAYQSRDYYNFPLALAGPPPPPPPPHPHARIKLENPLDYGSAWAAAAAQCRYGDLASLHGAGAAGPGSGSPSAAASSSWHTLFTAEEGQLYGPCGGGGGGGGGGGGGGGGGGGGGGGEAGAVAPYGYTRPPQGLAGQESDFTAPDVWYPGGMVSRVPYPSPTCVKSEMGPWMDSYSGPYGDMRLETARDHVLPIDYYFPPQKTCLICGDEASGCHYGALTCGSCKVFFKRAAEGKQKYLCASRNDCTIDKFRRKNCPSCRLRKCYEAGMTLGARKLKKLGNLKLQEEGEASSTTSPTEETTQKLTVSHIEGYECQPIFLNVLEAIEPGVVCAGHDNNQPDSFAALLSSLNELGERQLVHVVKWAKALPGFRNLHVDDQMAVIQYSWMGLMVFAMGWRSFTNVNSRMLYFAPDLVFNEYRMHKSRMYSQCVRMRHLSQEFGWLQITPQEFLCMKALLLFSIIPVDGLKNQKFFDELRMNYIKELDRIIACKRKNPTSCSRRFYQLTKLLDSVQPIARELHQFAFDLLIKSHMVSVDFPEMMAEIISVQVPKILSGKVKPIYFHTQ
Summary of the method: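 AR loss reported as IC50 from curve fits of fluorescence dose-response data, with AR immunostained and read by laser-scanning cytometry. Compound exposure was 20-22 h at 37° C in LNCaP cells grown in 5% charcoal-stripped FBS and plated overnight beforehand.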

Which DC50 does the source give for `Fc1cccc(CN2CCN(c3ccc4nnc(C(F)(F)F)n4c3)CC2)c1` [Example 189, 6-[4-[(3-fluorophenyl)methyl]piperazin-1-yl]-3-(trifluoromethyl)-[1,2,4]triazolo[4,3-a]pyridine] here?
The DC50 was 1.1 µM.

How did the DC50 turn out when `FC(F)(F)c1nnc2ccc(N3CCN(Cc4ccc(Cl)cc4)CC3)cn12` [Example 190, 6-[4-[(4-chlorophenyl)methyl]piperazin-1-yl]-3-(trifluoromethyl)-[1,2,4]triazolo[4,3-a]pyridine] was run?
Its DC50 is 0.79 µM.

With `Fc1ccc(CN2CCN(c3ccc4nnc(C(F)(F)F)n4c3)CC2)cc1` [Example 191, 6-[4-[(4-fluorophenyl)methyl]piperazin-1-yl]-3-(trifluoromethyl)-[1,2,4]triazolo[4,3-a]pyridine] as the molecule, how does the DC50 read?
The DC50 was 2.1 µM.

How did the DC50 turn out when `COc1ccc(CN2CCN(c3ccc4nnc(C(F)(F)F)n4c3)CC2)cc1` [Example 192, 6-[4-[(4-methoxyphenyl)methyl]piperazin-1-yl]-3-(trifluoromethyl)-[1,2,4]triazolo[4,3-a]pyridine] was run?
The DC50 was 8.7 µM.

`FC(F)(F)c1nnc2ccc(N3CC4CN(Cc5ccncc5)CC4C3)nn12` (centres unmarked) [Example 193, 6-[2-(pyridin-4-ylmethyl)-1,3,3a,4,6,6a-hexahydropyrrolo[3,4-c]pyrrol-5-yl]-3-(trifluoromethyl)-[1,2,4]triazolo[4,3-b]pyridazine] was tested. Which DC50 did it give?
The DC50 was 2 µM.

For `COc1cccc(CN2CC3CN(c4ccc5nnc(C(F)(F)F)n5n4)CC3C2)c1` (centres unmarked) [Example 194, 6-[2-[(3-methoxyphenyl)methyl]-1,3,3a,4,6,6a-hexahydropyrrolo[3,4-c]pyrrol-5-yl]-3-(trifluoromethyl)-[1,2,4]triazolo[4,3-b]pyridazine], which DC50 is on record?
The DC50 was 2.4 µM.

With `FC(F)(F)c1cccc(CN2CC3CN(c4ccc5nnc(C(F)(F)F)n5n4)CC3C2)c1` (centres unmarked) [Example 196, 3-(trifluoromethyl)-6-[2-[[3-(trifluoromethyl)phenyl]methyl]-1,3,3a,4,6,6a-hexahydropyrrolo[3,4-c]pyrrol-5-yl]-[1,2,4]triazolo[4,3-b]pyridazine] as the molecule, how does the DC50 read?
The DC50 was 1.5 µM.

How did the DC50 turn out when `N#Cc1cccc(CN2CC3CN(c4ccc5nnc(C(F)(F)F)n5n4)CC3C2)c1` (centres unmarked) [Example 197, 3-[[5-[3-(trifluoromethyl)-[1,2,4]triazolo[4,3-b]pyridazin-6-yl]-1,3,3a,4,6,6a-hexahydropyrrolo[3,4-c]pyrrol-2-yl]methyl]benzonitrile] was run?
Its DC50 is 0.82 µM.

How did the DC50 turn out when `FC(F)(F)c1ccc(CN2CC3CN(c4ccc5nnc(C(F)(F)F)n5n4)CC3C2)cc1` (centres unmarked) [Example 199, 3-(trifluoromethyl)-6-[2-[[4-(trifluoromethyl)phenyl]methyl]-1,3,3a,4,6,6a-hexahydropyrrolo[3,4-c]pyrrol-5-yl]-[1,2,4]triazolo[4,3-b]pyridazine] was run?
Its DC50 is 1.9 µM.

`FC(F)(F)c1ccc(CN2CC3CN(c4ccc5nnc(C(F)(F)F)n5n4)CC3C2)cn1` (centres unmarked) [Example 201, 3-(trifluoromethyl)-6-[2-[[6-(trifluoromethyl)pyridin-3-yl]methyl]-1,3,3a,4,6,6a-hexahydropyrrolo[3,4-c]pyrrol-5-yl]-[1,2,4]triazolo[4,3-b]pyridazine] was tested. Which DC50 did it give?
The DC50 was 1.7 µM.

`Fc1ccc(CN2CC3CN(c4ccc5nnc(C(F)(F)F)n5n4)CC3C2)cc1` (centres unmarked) [Example 203, 6-[2-[(4-fluorophenyl)methyl]-1,3,3a,4,6,6a-hexahydropyrrolo[3,4-c]pyrrol-5-yl]-3-(trifluoromethyl)-[1,2,4]triazolo[4,3-b]pyridazine] was tested. Which DC50 did it give?
Its DC50 is 1.7 µM.

For `FC(F)(F)c1nnc2ccc(N3CC4CN(Cc5ccc(Cl)cc5)CC4C3)nn12` (centres unmarked) [Example 204, 6-[2-[(4-chlorophenyl)methyl]-1,3,3a,4,6,6a-hexahydropyrrolo[3,4-c]pyrrol-5-yl]-3-(trifluoromethyl)-[1,2,4]triazolo[4,3-b]pyridazine], which DC50 is on record?
The DC50 was 1.5 µM.

With `N#Cc1ccc(CN2CC3CN(c4ccc5nnc(C(F)(F)F)n5n4)CC3C2)cc1` (centres unmarked) [Example 205, 4-[[5-[3-(trifluoromethyl)-[1,2,4]triazolo[4,3-b]pyridazin-6-yl]-1,3,3a,4,6,6a-hexahydropyrrolo[3,4-c]pyrrol-2-yl]methyl]benzonitrile] as the molecule, how does the DC50 read?
Its DC50 is 0.53 µM.

Which DC50 does the source give for `FC(F)(F)c1nnc2ccc(N3CC4CN(Cc5cccnc5)CC4C3)nn12` (centres unmarked) [Example 206, 6-[2-(pyridin-3-ylmethyl)-1,3,3a,4,6,6a-hexahydropyrrolo[3,4-c]pyrrol-5-yl]-3-(trifluoromethyl)-[1,2,4]triazolo[4,3-b]pyridazine] here?
The DC50 was 2 µM.

Which DC50 does the source give for `COc1cccc(C(=O)N2CC3CN(c4ccc5nnc(C(F)(F)F)n5n4)CC3C2)c1` (centres unmarked) [Example 207, (3-methoxyphenyl)-[2-[3-(trifluoromethyl)-[1,2,4]triazolo[4,3-b]pyridazin-6-yl]-1,3,3a,4,6,6a-hexahydropyrrolo[3,4-c]pyrrol-5-yl]methanone] here?
The DC50 was 7.6 µM.

How did the DC50 turn out when `FC(F)(F)c1nnc2ccc(N3CC4CN(Cc5ccccc5)CC4C3)nn12` (centres unmarked) [Example 210, 6-(5-benzyl-1,3,3a,4,6,6a-hexahydropyrrolo[3,4-c]pyrrol-2-yl)-3-(trifluoromethyl)-[1,2,4]triazolo[3,4-f]pyridazine] was run?
The DC50 was 1.8 µM.

For `CC(C)(C)OC(=O)N1CC2CN(c3ccc4nnc(C(F)(F)F)n4n3)CC2C1` (centres unmarked) [Example 211, tert-butyl 5-(3-(trifluoromethyl)-[1,2,4]triazolo[4,3-b]pyridazin-6-yl)hexahydropyrrolo[3,4-c]pyrrole-2(1H)-carboxylate], which DC50 is on record?
Its DC50 is 8.2 µM.

How did the DC50 turn out when `Nc1ccc(CN2CCN(c3ccc4nnc(C(F)(F)F)n4n3)CC2)cc1` [Example 212, 4-((4-(3-(trifluoromethyl)-[1,2,4]triazolo[4,3-b]pyridazin-6-yl)piperazin-1-yl)methyl)aniline] was run?
Its DC50 is 3.7 µM.

For `O=C(Nc1ccc(F)cc1)N1CC2CN(c3ccc4nnc(C(F)(F)F)n4n3)CC2C1` (centres unmarked) [Example 213, N-(4-fluorophenyl)-2-[3-(trifluoromethyl)-[1,2,4]triazolo[3,4-f]pyridazin-6-yl]-1,3,3a,4,6,6a-hexahydropyrrolo[3,4-c]pyrrole-5-carboxamide], which DC50 is on record?
Its DC50 is 4.5 µM.

With `CCS(=O)(=O)N1CC2CN(c3ccc4nnc(C(F)(F)F)n4n3)CC2C1` (centres unmarked) [Example 215, 6-(5-ethylsulfonyl-1,3,3a,4,6,6a-hexahydropyrrolo[3,4-c]pyrrol-2-yl)-3-(trifluoromethyl)-[1,2,4]triazolo[3,4-f]pyridazine] as the molecule, how does the DC50 read?
Its DC50 is 7.4 µM.

How did the DC50 turn out when `C[C@@H]1CN(Cc2ccccc2)[C@@H](C)CN1c1ccc2nnc(C(F)(F)F)n2n1` [Example 216, 6-[(2R,5S)-4-benzyl-2,5-dimethylpiperazin-1-yl]-3-(trifluoromethyl)[1,2,4]triazolo[4,3-b]pyridazine] was run?
Its DC50 is 6.8 µM.

Which DC50 does the source give for `C[C@@H]1CN(Cc2cccnc2)[C@@H](C)CN1c1ccc2nnc(C(F)(F)F)n2n1` [Example 217, 6-[(2R,5S)-2,5-dimethyl-4-(pyridin-3-ylmethyl)piperazin-1-yl]-3-(trifluoromethyl)[1,2,4]triazolo[4,3-b]pyridazine] here?
Its DC50 is 3.7 µM.

For `CC1CN(c2ccc3nnc(C(F)(F)F)n3n2)C(C)CN1Cc1ccc(C#N)cc1` (centres unmarked) [Example 218], which DC50 is on record?
The DC50 was > 7.3 µM.

`CC1CN(c2ccc3nnc(C(F)(F)F)n3n2)C(C)CN1Cc1ccc(F)c(F)c1` (centres unmarked) [Example 219] was tested. Which DC50 did it give?
Its DC50 is 3.5 µM.

How did the DC50 turn out when `CC1CN(c2ccc3nnc(C(F)(F)F)n3n2)C(C)CN1Cc1cc(F)cc(F)c1` (centres unmarked) [Example 220] was run?
Its DC50 is 3.6 µM.

Which DC50 does the source give for `CC1CN(c2ccc3nnc(C(F)(F)F)n3n2)C(C)CN1Cc1ccc(F)c(C#N)c1` (centres unmarked) [Example 222] here?
Its DC50 is 2.6 µM.
